The results in this text go back to US8436037B2, “Process for the production of amides” (Syngenta Limited, priority 2005, dated 2013).

Data set [1] can be described thus: water solubility of crystal modifications. The data set is classed as physicochemical. As to conditions: over relevant temperature ranges; compared with modification A.
Data set [2] in a line: thermodynamic stability (DSC, solubility tests and other experiments). The data set is classed as physicochemical. The following applies: compared with modification A. The protocol:
Characteristic for modification B is also the thermogram in DSC (differential scanning calorimetry, see FIG. 5). It has an endothermic peak in the range from 120° C. to 128° C. depending on purity. For example, crystal modification B in pure form has a peak temperature of 128° C. and an endothermic signal around 90 J/g. This thermogram is characteristically different from the thermogram of the modification A (see FIG. 6), which has an endothermic peak at about 112° C. and an endothermic signal of 76 J/g. The measurement was carried out on a Metier Toledo 820 DSC in a closed pan with a heating rate of 10 K/minute. The typical sample quantity is about 5 mg.

Molecules are shown by their SMILES.

On to `CC(C)C1C2CCC1c1c(NC(=O)c3cn(C)nc3C(F)F)cccc12` (stereo not drawn) [modification B, syn-3-difluoromethyl-1-methyl-1H-pyrazole-4-carboxylic acid (9-isopropyl-1,2,3,4-tetrahydro-1,4-methano-naphthalen-5-yl)-amide], for which, in data set [1], the water solubility result is on record as “lower than the water solubility of modification A”. The thermodynamic stability entry in data set [2] is reported as “substantially better thermodynamic stability than the modification A”.
